Data as given in PMC7994567, “Characterization of a novel sn1,3 lipase from Ricinus communis L. suitable for production of oleic acid-palmitic acid-glycerol oleate” (Scientific Reports, 2021).

System: T1, RcLipase
T1 construct: catalytic Ser146, Asp211, His276; oxyanion Thr63, Leu147
Experiment: hydrolysis kinetics, Michaelis-Menten non-linear regression
Assay type: biochemical, Ricinus communis
Details: 20 mM Tris-HCl pH 8.0, 40 °C; substrate 0-1 mM

## CCCCCCCC/C=C\CCCCCCCC(=O)OCC(COC(=O)CCCCCCC/C=C\CCCCCCCC)OC(=O)CCCCCCC/C=C\CCCCCCCC [Triolein]
  Km: 210 ± 10 µM

## CCCCCCCCCCCCCCCC(=O)OCC(COC(=O)CCCCCCCCCCCCCCC)OC(=O)CCCCCCCCCCCCCCC [Tripalmitin]
  Km: 170 ± 10 µM
